The text below walks through data of paper PMC8395335, “Serotonergic–Muscarinic Interaction within the Prefrontal Cortex as a Novel Target to Reverse Schizophrenia-Related Cognitive Symptoms” (International Journal of Molecular Sciences, 2021).

Read-outs that look alike come from different tables or passages of the source.

In one series the test system is MK-801-treated mice. Description: Novel object recognition (NOR) test, MK-801-induced deficits. It is filed as in vivo. The note with it: for Reversal of MK-801-induced disruptions in NOR test by combined administration: 7 days; for Effect of combined administration on MK-801-induced memory deficits in the NOR test: subeffective doses. The procedure: Drugs were administered on two different schedules: (1) acute administration of compounds 45 min (WAY100635—5-HT1A antagonist) or 30 min (VU0357017, VU152100, VU0238429, and F15599) before MK-801 (also administered once 30 min before the test in Y-maze or T1 in NOR test); and (2) prolonged administration (once per day for 7 consecutive days) of the compounds and MK-801 with the last administration 24 h before the test (NOR test) or at the day of the test (Y-maze). […] Schedules of administration are presented graphically in Figure 2. The subeffective doses of the compounds for acute administration in the NOR test were chosen based on our previous research (see: [22, 23]) while dose-dependent studies of the activity of the compounds in reversing disruptions in the Y-maze or after prolonged administration along with MK-801 were performed within this study. Different vehicles were used throughout the study: (1) 0.9% NaCl and (2) 10% Tween 80. Vehicles were administered to all animals (e.g., control mice and MK-801-treated mice) on the same schedule as drugs were administered to the appropriate drug-treated groups of mice. Neither solvent exerted effects on animal behavior.
Male Albino Swiss mice (Charles River, Sulzfeld, Germany) weighing 20–25 g at the beginning of the experiments were used in the studies. The animals were housed in a room with a 12:12 h light-dark cycle at a temperature of 22 ± 1 °C with food and water available ad libitum. The experimental groups consisted of 8–10 animals. All drugs were administered intraperitoneally (i.p.) at a volume of 10 mL/kg. The behavioral experiments were performed by an observer who was blinded to the treatment. The procedures were conducted in accordance with the European Communities Council Directive of 22 September 2010 (2010/63/EU) and Polish legislation acts concerning animal experimentation and were approved by the II Local Ethics Committee by the Maj Institute of Pharmacology, Polish Academy of Sciences in Krakow (15/2020, 240/2020).
In acute experiments, the tested compounds (alone or in combination) were administered 30 min before MK-801 (0.3 mg/kg), which was administered 30 min before the test or training trial (T1) in the NOR test. In chronic experiments, the tested compounds (alone or in combination) and MK-801 were administered for seven days. Behavioral tests were performed on the eighth day.
The NOR test was performed as described previously. Briefly, the habituation, training and test trial were carried out in a dark room in a black, plastic rectangular arena illuminated with a 355 lux bulb. During the habituation trial, the animals were allowed to explore the arena in the absence of objects (10 min/day for 2 days). The next day, the training (T1) and test (T2) trials were performed. Throughout T1, mice were allowed to freely explore two identical objects (5 min), one of which was subsequently replaced by a novel object in T2 (1 h later, 5 min of exploration). Time spent exploring (i.e., sniffing or touching) the familiar (Tfamiliar) or novel object (Tnovel) was measured by a trained observer, and then the recognition index was calculated for each mouse [(Tnovel − Tfamiliar)/(Tfamiliar + Tnovel)] × 100.

The nature of series [1]: Pharmacokinetic analysis of drug-drug interactions (plasma, FC concentration, FC penetration). The settings on record: for Kp at 30 min: frontal cortex/plasma. It is filed as in vivo, mice. The method, then: The experiment was performed using the methods described by Bridges et al. and in our previous studies.
The pharmacokinetic analysis was performed in the blood and prefrontal cortex. […] Plasma and FC samples were stored at −80 °C until analysis.
The investigated compounds were administered alone at the top dose (F15599—0.1 mg/kg, VU0357017—5 mg/kg, VU0152100—1 mg/kg, and VU0238429—5 mg/kg) and in combinations of muscarinic ligands at subeffective doses with F15599 at subeffective dose (F15599 + VU0357017 0.05 and 0.15 mg/kg, F15599 + VU0152100 0.05 and 0.05 mg/kg, F15599 + VU0238429 0.05 and 1 mg/kg). The FC and blood were collected on the eighth day, 30 min after administration. All mice were parallelly treated with MK-801 (0.3 mg/kg) for seven consecutive days.
On the day of analysis, frozen whole mouse brain tissues were weighed and homogenized in 1:2 (w/v) volumes of ice-cold acetonitrile containing 0.1% FA and the internal standard mix. Samples were homogenized using a Metal Bead Lysing Matrix, vortexed for 1 min, shaken for 20 min at 4 °C on Thermomixer C, and centrifuged at 14,000× g rpm for 20 min at 4 °C. Finally, 50 µL of supernatant were diluted with 0.1% FA in water (1:1, v/v) and analyzed using HPLC/MS/MS.
The sample extraction of plasma (20 μL) was performed after spiking with the internal standard mix using the protein precipitation method and three volumes of ice-cold acetonitrile containing 0.1% formic acid. The extract was vortexed, incubated on ice for 20 min and centrifuged at 14,000× g rpm for 20 min at 4 °C. The supernatant was diluted with 0.1% FA in water (1:1, v/v) and analyzed by means of HPLC/MS/MS using a QTRAP 4500 (AB Sciex) mass spectrometer in positive ion mode in Multiple Reaction Monitoring (MRM screening) coupled with UHPLC (NEXERA XR, Shimadzu). Chromatographic separation was achieved on a Synergi 4 µm Fusion-RP 80 A 50 × 2 mm (Phenomenex) column at a flow rate of 0.2 mL/min. The gradient program was as follows: 20% B (0.3 min), 20–100% B (1.7 min), 100% B (3 min), 100–20% B (0.1 min), 20% B (2 min), solvent A (95:5:0.1% formic acid in water:methanol) and solvent B (methanol containing 0.1% formic acid). The column temperature was set to 40 °C. Analyst software was used to control the instrument and collect data. The ion transfer tube temperature was 300 °C. The spray voltage, collision energy, declastering potential, and gas parameters were optimized to achieve the maximal response using the test compounds. Selected reaction monitoring was carried out using the transition parameters. Calibration curves were constructed, and a linear response was obtained in the range of 0.25–500 ng/mL (VU357017, VU0152100, and F15599) and 1.25–2500 ng/mL (VU0238429) by spiking known amounts of each compound in blank brain homogenates and plasma. For VU0357017 and F15599 IS VU0152100 was used as internal standard. Sample concentration of internal standard was 100 ng/mL for IS VU0238429 and 50 ng/mL for IS VU0152100.
Brain penetration was calculated as FC/plasma ratio × 100%.

The mark [2] stands for this setting: F15599 0.05 mg/kg with VU0238429 1 mg/kg (subeffective doses).
The mark [3] stands for this setting: Albino Swiss, mouse, in vivo, 30 min.

In the case of `Cc1cnc(CNCC2(F)CCN(C(=O)c3ccc(F)c(Cl)c3)CC2)nc1` [F15599], the “Reversal of MK-801-induced deficits in the NOR test (recognition index)” value with MK-801-treated mice (7 days with MK-801, 0.025 mg/kg i.p.) is “ineffective”; in the series with MK-801-treated mice (7 days with MK-801, 0.1 mg/kg i.p.) it was “reversed”; with MK-801-treated mice (acute, 0.05 mg/kg i.p., 30 min before MK-801) it was “ineffective”; in the series with MK-801-treated mice (acute, 0.1 mg/kg i.p., 30 min before MK-801 (0.3 mg/kg)), “reversed”; in the series with MK-801-treated mice (acute, 0.5 mg/kg i.p., 30 min before MK-801) it was “reversed”. For the same compound, the “Reversal of MK-801-induced disruptions in NOR test by combined administration” value with MK-801-treated mice (F15599 0.05 mg/kg with VU0152100 0.05 mg/kg (subeffective doses)), in the series on MK-801-treated mice (setting [2]) and with MK-801-treated mice (F15599 0.05 mg/kg with VU0357017 0.15 mg/kg (subeffective doses)) was “reversed” throughout. The “Effect of combined administration on MK-801-induced memory deficits in the NOR test” value in the series with MK-801-treated mice (acute, F15599 with VU0152100) is listed as “no effect”; with MK-801-treated mice (acute, F15599 with VU0238429), “no effect”; in the series with MK-801-treated mice (acute, F15599 with VU0357017), “no effect”. The PFC in series [1] (Albino Swiss, mouse, in vivo, 0.1 mg/kg, 30 min) was found to be 21.57 ± 1.26 ng/mL. The concentration at 30 min in series [1] (Albino Swiss, mouse, in vivo, 0.1 mg/kg, PFC) is 18.3 ± 0.84 ng/mL. Moreover, in series [1] (setting [3]), the “Decrease of FC penetration after prolonged administration compared to acute” value is “ca. 50%”. Besides, the “Decrease of FC penetration of F15599 when administered simultaneously” value in series [1] (setting [3]) was ~ 50%. Further, the “Effect of chronic administration of subeffective doses (combinations) on brain penetration” value in series [1] (mouse, in vivo) is “increased”.
For the compound `COc1ccc(CN2C(=O)C(=O)c3cc(OC(F)(F)F)ccc32)cc1` [VU0238429], the “Reversal of MK-801-induced deficits in the NOR test (recognition index)” value in the series with MK-801-treated mice (7 days with MK-801, 0.5 mg/kg) is listed as “ineffective”; with MK-801-treated mice (7 days with MK-801, 1 mg/kg), “ineffective”; in the series with MK-801-treated mice (7 days with MK-801, 5 mg/kg), “active”. The “Reversal of MK-801-induced disruptions in NOR test by combined administration” value in the series with MK-801-treated mice (setting [2]) is “reversed”. Further, the “Effect of top dose on MK-801-induced deficits in the NOR test” value in the series with MK-801-treated mice (acute, 5 mg/kg i.p., alone) is “pro-cognitive effect”. Besides, the “Effect of combined administration on MK-801-induced memory deficits in the NOR test” value with MK-801-treated mice (acute, F15599 with VU0238429) is recorded as “no effect”. Besides, the Kp at 30 min in series [1] (Albino Swiss, mouse, intraperitoneal, acute, combination F15599 0.05 mg/kg + VU0238429 1 mg/kg, read-out: PFC Penetration) came out at 0.36; in series [1] (Albino Swiss, mouse, intraperitoneal, acute, top doses alone (VU0357017 5, VU0152100 1, VU0238429 5, F15599 0.1 mg/kg), 30 min after administration, read-out: PFC Penetration (FC/plasma ratio x 100%)) it was 0.53; in series [1] (Albino Swiss, mouse, intraperitoneal, chronic (7 days with MK-801), combination F15599 0.05 mg/kg + VU0238429 1 mg/kg, read-out: PFC Penetration), 0.15; in series [1] (Albino Swiss, mouse, intraperitoneal, chronic (7 days with MK-801), top doses alone (VU0357017 5, VU0152100 1, VU0238429 5, F15599 0.1 mg/kg), read-out: PFC Penetration (FC/plasma ratio x 100%)) it was 0.21. The concentration at 30 min stood at 120 ± 13.9 ng/mL in series [1] (Albino Swiss, mouse, plasma, intraperitoneal, acute, combination F15599 0.05 mg/kg + VU0238429 1 mg/kg, read-out: Plasma); 486 ± 178 ng/mL in series [1] (Albino Swiss, mouse, plasma, intraperitoneal, acute, top doses alone (VU0357017 5, VU0152100 1, VU0238429 5, F15599 0.1 mg/kg), 30 min after administration, read-out: Plasma); 35 ± 8.89 ng/mL in series [1] (Albino Swiss, mouse, plasma, intraperitoneal, chronic (7 days with MK-801), combination F15599 0.05 mg/kg + VU0238429 1 mg/kg, read-out: Plasma); 844 ± 235 ng/mL in series [1] (Albino Swiss, mouse, plasma, intraperitoneal, chronic (7 days with MK-801), top doses alone (VU0357017 5, VU0152100 1, VU0238429 5, F15599 0.1 mg/kg), read-out: Plasma); 43.1 ± 1.81 ng/mL in series [1] (Albino Swiss, mouse, prefrontal cortex (FC), intraperitoneal, acute, combination F15599 0.05 mg/kg + VU0238429 1 mg/kg, read-out: PFC); 256 ± 32.1 ng/mL in series [1] (Albino Swiss, mouse, prefrontal cortex (FC), intraperitoneal, acute, top doses alone (VU0357017 5, VU0152100 1, VU0238429 5, F15599 0.1 mg/kg), 30 min after administration, read-out: PFC). For the same compound, the concentration at 30 min in series [1] (Albino Swiss, mouse, prefrontal cortex (FC), intraperitoneal, chronic (7 days with MK-801), combination F15599 0.05 mg/kg + VU0238429 1 mg/kg, read-out: PFC) was found to be 5.13 ± 0.83 ng/mL; in series [1] (Albino Swiss, mouse, prefrontal cortex (FC), intraperitoneal, chronic (7 days with MK-801), top doses alone (VU0357017 5, VU0152100 1, VU0238429 5, F15599 0.1 mg/kg), read-out: PFC), 179 ± 25 ng/mL. In series [1] (FC penetration versus earlier whole-brain data), the “Fold higher penetration to the FC than to whole brain” value was “more than 6 times”. Moreover, the “PFC Penetration (FC/plasma ratio x 100%)” value in series [1] (acute, top doses alone (VU0357017 5, VU0152100 1, VU0238429 5, F15599 0.1 mg/kg), 30 min after administration) was determined as 53%; in series [1] (chronic (7 days with MK-801), top doses alone (VU0357017 5, VU0152100 1, VU0238429 5, F15599 0.1 mg/kg)), 21%. Moreover, the “Decrease of FC penetration after acute concomitant administration with F15599” value in series [1] (subeffective doses, compared to top dose alone) is recorded as ~ 40%. Further, in series [1] (top doses alone, animals treated with MK-801), the “Decrease of FC penetration after prolonged administration compared to acute” value was “ca. 50%”.
